Source: patent US8629154B2, “Substituted cycloalcano[e and d] pyrazolo [1,5-a]pyrimidines/antagonists of serotonin 5-HT6 receptors and methods for production and the use thereof” (priority 2008, dated 2014)

Experiments:
5-HT6 receptor [1] = target: T1, 5-HT6 receptor (Homo sapiens (Human), UniProt P50406); test: Competitive radioligand binding ([3H] Lysergic acid diethylamide) to membranes of HeLa cells expressing 5-HT6 receptor; conditions: 1.5 nM [3H] Lysergic acid diethylamide, HeLa cell membranes; for IC50: read-out: IC50 of serotonin 5-HT6 receptor inhibition in the setting of competitive binding; for Ki: read-out: Ki of serotonin 5-HT6 receptor inhibition in the setting of competitive binding
Protocol: Activity determination of serotonin 5-HT6 receptor antagonists of the general formula 1 in the setting of competitive binding to serotonin 5-HT6 receptors.
Screening of disclosed compounds for their potential ability to interact with serotonin 5-HT6 receptors was carried out by method of radioligand binding. For this purpose membrane species were prepared from HeLa cells expressing recombinant human 5-HT6 receptor by means of their homogenization in glass homogenizer with subsequent separation of plasmatic membranes from cell nucli, mitochondria's and cell wreckages by differential centrifugation. Determination of tested compounds binding with 5-HT6 receptors was carried out according to the method described in [Monsma F J Jr, Shen Y, Ward R P, Hamblin M W and Sibley D R, Cloning and expression of a novel serotonin receptor with high affinity for tricyclic psychotropic drugs. Mol. Pharmacol. 43:320-327, 1993]. In the preferred embodiment membrane preparations were incubated with radioligand (1.5 nM [^3H] Lysergic acid diethylamide) without and in the presence of investigated compounds for […] at 37° C. in medium consisting of […], pH 7.4, 150 mM NaCl, 2 mM Ascorbic Acid, 0.001% BSA. After incubation the samples were filtered in vacuo on glass-microfiber filters G/F (Millipor, USA), filters were washed three times with cold solution of medium and radioactivity was measured by scintillation counter MicroBeta 340 (PerkinElmer, USA). Nonspecific binding which made up 30% of overall binding was determined by incubation of membrane preparations with radioligand in the presence of 5 μM Serotonin (5-HT). Methiothepin was used as positive control. Binding of tested compounds with the receptor was determined by their ability to displace the radioligand and expressed in percent of displacement. The percent of displacement was calculated according to the following equation:
[formula] wherein: TA—was overall radioactivity in presence of radioligand only, CA—was radioactivity in presence of radioligand and tested compound and NA—was radioactivity in presence of radioligand and Serotonin (5 μM).

5-HT6 receptor [2] = target: T1, 5-HT6 receptor; test: Functional assay: inhibition of serotonin-induced intracellular cAMP (LANCE cAMP) in HEK 293 cells expressing 5-HT6 receptor; assay type: cell-based; conditions: read-out: IC50 of serotonin 5-HT6 receptor inhibition in the setting of functional assay
Protocol: Determination of antagonistic activity of compounds of general formulas 1 and 2 towards 5-HT6 receptors. Compounds of general formulas 1 and 2 were tested for their ability to prevent 5-HT6 receptors activation by serotonin. HEK 293 cells (cells of human embryo's kidney) with artificially expressed 5-HT6 receptor, activation of which by serotonin leads to increasing the concentration of intracellular cAMP were used. The content of intracellular cAMP was determined using reagent kit LANCE cAMP (PerkinElmer) according to the method described by the manufacturer of the kit [http://las.perkinelmer.com/content/Manuals/MAN_LANCEcAMP384KitUser.pdf].
Effectiveness of compounds was estimated by their ability to reduce the content of intracellular cAMP induced by serotonin.

[3] = tested on: aged male mice of BALB/c line; test: Passive Avoidance of mice in the Shuttle Chamber, memory disturbed by Scopolamine; assay type: in vivo; conditions: Scopolamine 0.3 mg/kg, 30 minutes before training
Protocol: A shuttle chamber (Ugo Basile, Italy) consisted of two sections was used. The walls of one section were opaque while the second section had transparent cover. The sections were connected through a hole which could be overlapped by vertical door. The floor was made of transverse metal bars on which DC current impulses could be fed. Experiments were carried out in aged male mice of BALB/c line weighing 20-24 grams. On the first day of experiment 30 minutes before training mice were injected […] with physiological solutions of Scopolamine (0.3 mg/kg) or Scopolamine in combination with active ingredient 1.2(3). Each group consisted of at least 8 animals. Animals were placed in light section, and latent period of the first entry into dark chamber was registered. Then vertical door was closed and the animal was punished by 0.6 mA DC current for 3 seconds. After that the animal was returned to its living cage. In 22-24 hours the same animal was placed again in light section of the shuttle chamber and the latent period of its first entry into the dark section, the total time of its stay in the light section and the number of entries into the dark section was registered. Each monitoring lasted for 5 minutes. The experiment was carried out during the day time in isolated laboratory using white noise at level of about 70 decibel above human hearing threshold. […]

mice [4] = test: Passive Avoidance of mice in the Shuttle Chamber, memory disturbed by MK-801; assay type: in vivo; conditions: MK-801 0.1 mg/kg, 30 minutes before training
Protocol: A shuttle chamber (Ugo Basile, Italy) consisted of two sections was used. The walls of one section were opaque while the second section had transparent cover. The sections were connected through a hole which could be overlapped by vertical door. The floor was made of transverse metal bars on which DC current impulses could be fed. Experiments were carried out in aged male mice of BALB/c line weighing 20-24 grams.
On the first day of experiment 30 minutes before training mice were injected […] with physiological solutions of Scopolamine (0.3 mg/kg) or Scopolamine in combination with active ingredient 1.2(3). Each group consisted of at least 8 animals. Animals were placed in light section, and latent period of the first entry into dark chamber was registered. Then vertical door was closed and the animal was punished by 0.6 mA DC current for 3 seconds. After that the animal was returned to its living cage. In 22-24 hours the same animal was placed again in light section of the shuttle chamber and the latent period of its first entry into the dark section, the total time of its stay in the light section and the number of entries into the dark section was registered. Each monitoring lasted for 5 minutes.
The experiment was carried out as in example 7. […]

mice [5] = test: Mice Behavior in the Elevated Plus Maze; assay type: in vivo
Description: Anxiolytic (tranquilizing) action of compounds of general formulas 1 and 2 in the test “Mice Behavior in the Elevated Plus Maze”. The length of each arm in the labyrinth is 30 cm, the width is 5 cm, and the height of walls is 15 cm. Two opposite arms are closed from sides and end faces by transparent walls, the other two arms are lit and opened. A mouse was placed in the center of maze and for the next five minutes the number of entries the opened and closed arms and the time spent in each type of arms was registered. […] The animals usually avoid the open arms (the preference index is between 0.2 and 0.3). Compounds with tranquilizing action increase this index up to 0.5-0.6 or even more and reduce the number of defecations without changing the overall motion activity of the mice (the total number of their entries to the arms).

T1 sequence (P50406 whole entry): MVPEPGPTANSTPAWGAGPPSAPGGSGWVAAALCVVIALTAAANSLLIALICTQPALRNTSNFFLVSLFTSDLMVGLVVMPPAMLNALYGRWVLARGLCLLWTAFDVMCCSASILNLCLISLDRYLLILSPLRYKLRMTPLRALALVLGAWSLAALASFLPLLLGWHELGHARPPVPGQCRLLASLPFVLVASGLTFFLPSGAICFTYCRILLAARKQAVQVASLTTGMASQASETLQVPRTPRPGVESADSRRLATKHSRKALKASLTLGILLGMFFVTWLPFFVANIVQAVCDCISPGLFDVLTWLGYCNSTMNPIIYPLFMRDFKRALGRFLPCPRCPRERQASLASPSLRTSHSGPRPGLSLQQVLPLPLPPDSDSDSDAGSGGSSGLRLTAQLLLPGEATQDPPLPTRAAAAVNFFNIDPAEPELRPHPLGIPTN

Row | Compound | IC50 (5-HT6 receptor [1]) | Ki (5-HT6 receptor [1]) | IC50 (5-HT6 receptor [2]) | Nootropic action (enhancement of memory disturbed by Scopolamine) [3] | Nootropic action (enhancement of memory disturbed by MK-801) (mice [4]) | Anxiolytic (tranquilizing) action (mice [5])
1 | CSc1nn2cc3c(nc2c1S(=O)(=O)c1ccccc1)CCCC3 [2(1)] | 17.2 nM | 7.97 nM | 479 nM | – | – | –
2 | CSc1nn2c(C)c3c(nc2c1S(=O)(=O)c1ccccc1)CCCC3 [2(2)] | 1.46 nM | 0.68 nM | 7.8 nM | – | – | –
3 | CSc1nn2c3c(cnc2c1S(=O)(=O)c1ccccc1)CCCC3 [1.2(1), 2-methylsulfanyl-3-(phenylsulfonyl)-6,7,8,9-tetrahydrocyclohexa[e]pyrazolo[1,5-a]pyrimidine] | 1.18 nM | 0.549 nM | 35 nM | – | – | –

Continued, in another order:

Row | IC50 (5-HT6 receptor [1]) | Ki (5-HT6 receptor [1]) | IC50 (5-HT6 receptor [2]) | Compound | Nootropic action (enhancement of memory disturbed by Scopolamine) [3] | Nootropic action (enhancement of memory disturbed by MK-801) (mice [4]) | Anxiolytic (tranquilizing) action (mice [5])
4 | 0.948 nM | 0.44 nM | 32 nM | CSc1nn2c3c(c(C)nc2c1S(=O)(=O)c1ccccc1)CCCC3 [1.2(3), 5-methyl-2-methylsulfanyl-3-(phenylsulfonyl)-6,7,8,9-tetrahydrocyclohexa[e]pyrazolo[1,5-a]pyrimidine] | confirm nootropic action | produce nootropic effect | exhibits an anxiolytic (tranquilizing) action which is comparable with the activity of Buspirone and Lorasepam
5 | 0.986 nM | 0.458 nM | 27 nM | CSc1nn2c3c(cnc2c1S(=O)(=O)c1ccccc1)CCC3 [1.1(1), 2-methylsulfanyl-3-(phenylsulfonyl)-7,8-dihydro-6H-cyclopenta[e]pyrazolo[1,5-a]pyrimidine] | – | – | –
